Type in all cases: biochemical
One experiment has as its target PI3Kα (Homo sapiens, UniProt P42336). Description: PI3K-alpha fluorescence polarization assay. To be noted: read-out: PI3Kα Median IC50. (In general: Fluorescence polarisation rises when a labelled molecule tumbles more slowly, as on binding a larger partner.)
Another experiment deals with PI3Kγ (Homo sapiens, UniProt P48736). Description: PI3K-gamma fluorescence polarization assay. To be noted: read-out: PI3Kγ Median IC50.
A further experiment concerns the target mTOR (Homo sapiens, UniProt P42345). Description: mTOR enzyme assay (DELFIA format, His6-S6K substrate).
The mark [1] stands for this setting: read-out: mTOR Kinase Median IC50.

Read-outs that look alike come from different tables or passages of the source.

IC50 data for 23 compounds are collected here from patent publication US20090298820A1, “3-SUBSTITUTED-1H-PYRROLO[2,3-B]PYRIDINE AND 3-SUBSTITUTED-1H-PYRROLO[3,2-B]PYRIDINE COMPOUNDS, THEIR USE AS MTOR KINASE AND PI3 KINASE INHIBITORS, AND THEIR SYNTHESES” (Wyeth, priority 2008, published 2009).

PI3Kα, sequence (P42336 whole entry, species assumed): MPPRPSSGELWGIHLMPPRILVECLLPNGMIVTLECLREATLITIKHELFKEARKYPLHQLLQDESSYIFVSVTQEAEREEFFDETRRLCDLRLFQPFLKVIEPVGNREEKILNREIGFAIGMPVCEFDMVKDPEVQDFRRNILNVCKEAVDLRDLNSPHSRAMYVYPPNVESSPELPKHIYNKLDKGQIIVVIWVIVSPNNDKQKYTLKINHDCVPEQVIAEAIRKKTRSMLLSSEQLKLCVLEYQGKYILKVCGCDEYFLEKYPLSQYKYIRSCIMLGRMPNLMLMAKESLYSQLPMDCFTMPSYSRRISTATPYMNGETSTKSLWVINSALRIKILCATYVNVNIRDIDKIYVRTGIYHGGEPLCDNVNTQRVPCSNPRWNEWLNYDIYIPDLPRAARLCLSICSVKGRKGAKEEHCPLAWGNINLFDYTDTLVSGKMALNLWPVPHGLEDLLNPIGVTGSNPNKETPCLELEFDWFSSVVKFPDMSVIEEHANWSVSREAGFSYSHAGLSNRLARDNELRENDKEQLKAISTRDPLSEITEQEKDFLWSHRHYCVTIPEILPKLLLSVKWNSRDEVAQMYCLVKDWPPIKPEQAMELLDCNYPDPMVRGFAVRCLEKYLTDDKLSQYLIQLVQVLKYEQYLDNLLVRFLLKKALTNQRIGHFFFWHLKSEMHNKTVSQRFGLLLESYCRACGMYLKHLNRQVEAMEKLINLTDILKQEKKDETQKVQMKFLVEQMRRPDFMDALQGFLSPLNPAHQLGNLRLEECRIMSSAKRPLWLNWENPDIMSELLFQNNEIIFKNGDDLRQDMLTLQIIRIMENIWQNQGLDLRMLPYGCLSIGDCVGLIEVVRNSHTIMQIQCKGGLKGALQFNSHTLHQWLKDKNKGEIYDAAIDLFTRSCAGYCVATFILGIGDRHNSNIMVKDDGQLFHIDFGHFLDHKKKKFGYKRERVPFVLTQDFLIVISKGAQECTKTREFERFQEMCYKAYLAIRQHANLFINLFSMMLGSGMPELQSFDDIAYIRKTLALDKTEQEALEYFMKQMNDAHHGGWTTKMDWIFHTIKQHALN
PI3Kα, sequence (P27986 whole entry partner, species assumed): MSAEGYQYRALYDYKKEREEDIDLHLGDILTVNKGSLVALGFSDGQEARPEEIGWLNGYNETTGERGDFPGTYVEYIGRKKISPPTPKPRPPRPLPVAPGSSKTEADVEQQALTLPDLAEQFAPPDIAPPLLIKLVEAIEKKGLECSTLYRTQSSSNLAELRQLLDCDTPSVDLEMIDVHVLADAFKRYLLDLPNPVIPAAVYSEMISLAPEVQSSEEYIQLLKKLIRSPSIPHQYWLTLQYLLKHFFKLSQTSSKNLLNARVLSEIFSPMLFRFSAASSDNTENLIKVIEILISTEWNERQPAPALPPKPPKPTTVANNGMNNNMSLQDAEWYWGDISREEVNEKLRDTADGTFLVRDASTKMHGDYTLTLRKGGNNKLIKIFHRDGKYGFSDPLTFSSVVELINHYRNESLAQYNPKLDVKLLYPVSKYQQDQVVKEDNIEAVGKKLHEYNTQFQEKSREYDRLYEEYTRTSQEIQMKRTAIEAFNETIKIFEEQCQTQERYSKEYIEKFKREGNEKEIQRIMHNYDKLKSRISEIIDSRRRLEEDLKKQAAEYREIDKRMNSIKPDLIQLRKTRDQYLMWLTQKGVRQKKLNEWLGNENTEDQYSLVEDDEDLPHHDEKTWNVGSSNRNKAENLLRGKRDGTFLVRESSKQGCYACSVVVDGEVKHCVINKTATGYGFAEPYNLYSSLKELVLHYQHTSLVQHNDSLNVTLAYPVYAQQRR
PI3Kγ, sequence (P48736 whole entry, species assumed): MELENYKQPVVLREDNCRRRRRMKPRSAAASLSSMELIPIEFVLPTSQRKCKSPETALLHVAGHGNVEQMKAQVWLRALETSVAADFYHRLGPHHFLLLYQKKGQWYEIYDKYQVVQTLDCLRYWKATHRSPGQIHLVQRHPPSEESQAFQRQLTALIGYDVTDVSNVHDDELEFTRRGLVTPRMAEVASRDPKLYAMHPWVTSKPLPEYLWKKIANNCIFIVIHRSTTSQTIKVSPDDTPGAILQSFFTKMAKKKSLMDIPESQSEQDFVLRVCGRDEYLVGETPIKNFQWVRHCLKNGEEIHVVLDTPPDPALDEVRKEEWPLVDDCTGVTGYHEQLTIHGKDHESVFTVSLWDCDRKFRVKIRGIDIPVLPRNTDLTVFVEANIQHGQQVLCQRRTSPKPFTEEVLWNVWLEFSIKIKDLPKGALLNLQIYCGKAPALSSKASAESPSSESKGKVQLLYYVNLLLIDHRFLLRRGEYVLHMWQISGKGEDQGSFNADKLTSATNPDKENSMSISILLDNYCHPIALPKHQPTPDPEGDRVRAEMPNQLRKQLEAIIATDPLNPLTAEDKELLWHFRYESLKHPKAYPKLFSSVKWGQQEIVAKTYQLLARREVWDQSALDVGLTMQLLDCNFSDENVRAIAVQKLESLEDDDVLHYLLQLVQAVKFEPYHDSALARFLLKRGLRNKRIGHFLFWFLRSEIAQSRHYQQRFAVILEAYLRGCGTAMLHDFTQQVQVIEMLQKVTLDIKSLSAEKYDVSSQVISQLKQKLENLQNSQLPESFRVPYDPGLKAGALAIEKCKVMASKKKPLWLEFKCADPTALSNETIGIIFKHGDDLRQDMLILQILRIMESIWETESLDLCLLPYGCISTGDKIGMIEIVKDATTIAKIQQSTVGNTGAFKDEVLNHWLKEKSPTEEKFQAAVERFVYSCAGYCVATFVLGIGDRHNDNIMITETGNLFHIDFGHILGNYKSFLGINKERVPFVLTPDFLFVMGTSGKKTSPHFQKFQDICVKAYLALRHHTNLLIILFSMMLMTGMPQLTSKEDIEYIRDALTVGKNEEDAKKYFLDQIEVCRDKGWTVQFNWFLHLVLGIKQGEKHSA

A word on the IC50: it is the concentration that gives 50% inhibition. On to `CNC(=O)Nc1ccc2c(c1)C(=O)/C(=C/c1cn(CCN3CCN(C)CC3)c3ncc(OC)cc13)O2` [Compound 120, 1-[(2Z)-2-({5-methoxy-1-[2-(4-methylpiperazin-1-yl)ethyl]-1H-pyrrolo[2,3-b]pyridin-3-yl}methylene)-3-oxo-2,3-dihydro-1-benzofuran-5-yl]-3-methylurea], for which the IC50 at PI3Kα was determined as 0.035 µM; on PI3Kγ, 2.38 µM; at mTOR, 0.285 µM.
As to `COc1ccc(-c2ccnc3c2c(/C=C2\Oc4cccc(O)c4C2=O)cn3C)cc1S(=O)(=O)N1CCCCC1` [Compound 123, (2Z)-4-hydroxy-2-({4-[4-methoxy-3-(piperidin-1-ylsulfonyl)phenyl]-1-methyl-1H-pyrrolo[2,3-b]pyridin-3-yl}methylene)-1-benzofuran-3(2H)-one], the IC50 on PI3Kα came out at 0.043 µM; on PI3Kγ, 0.156 µM; at mTOR (setting [1]), 0.0165 µM.
For `CN1CCN(C(=O)c2ccc(-c3ccnc4c3c(/C=C3\Oc5cccc(O)c5C3=O)cn4C)cc2)CC1` [Compound 124, (2Z)-4-hydroxy-2-[(1-methyl-4-{4-[(4-methylpiperazin-1-yl)carbonyl]phenyl}-1H-pyrrolo[2,3-b]pyridin-3-yl)methylene]-1-benzofuran-3(2H)-one], in that order: 0.07 µM, 0.184 µM and 0.001 µM.
In the same order, the values of `Cn1cc(/C=C2\Oc3cccc(O)c3C2=O)c2c(-c3cccc(O)c3)ccnc21` [Compound 125, (2Z)-4-hydroxy-2-{[4-(3-hydroxyphenyl)-1-methyl-1H-pyrrolo[2,3-b]pyridin-3-yl]methylene}-1-benzofuran-3(2H)-one] are 0.043 µM, 0.093 µM and 0.013 µM.
In the same order, the values of `CN1CCOc2cc(-c3ccnc4c3c(/C=C3\Oc5cccc(O)c5C3=O)cn4C)ccc21` [Compound 126, (2Z)-4-hydroxy-2-{[1-methyl-4-(4-methyl-3,4-dihydro-2H-1,4-benzoxazin-7-yl)-1H-pyrrolo[2,3-b]pyridin-3-yl]methylene}-1-benzofuran-3(2H)-one] are 0.802 µM, 8.64 µM and 0.0062 µM.
Consider `Cn1cc(/C=C2\Oc3cccc(O)c3C2=O)c2c(-c3ccc(-c4ccco4)cc3)ccnc21` [Compound 127, (2Z)-2-({4-[4-(2-furyl)phenyl]-1-methyl-1H-pyrrolo[2,3-b]pyridin-3-yl}methylene)-4-hydroxy-1-benzofuran-3(2H)-one], for which the IC50 stood at 0.107 µM at PI3Kα, 0.829 µM at PI3Kγ and 0.0081 µM on mTOR (setting [1]).
`Cn1cc(/C=C2\Oc3cccc(O)c3C2=O)c2c(-c3ccc(CN4CCOCC4)cc3)ccnc21` [Compound 130, (2Z)-4-hydroxy-2-({1-methyl-4-[4-(morpholin-4-ylmethyl)phenyl]-1H-pyrrolo[2,3-b]pyridin-3-yl}methylene)-1-benzofuran-3(2H)-one]: the IC50 at PI3Kα is 0.154 µM; on PI3Kγ, 0.263 µM; at mTOR (setting [1]), 0.0032 µM.
For `Cn1cc(/C=C2\Oc3cccc(O)c3C2=O)c2c(-c3ccc(N4CCNCC4)cc3)ccnc21` [Compound 135, (2Z)-4-hydroxy-2-{[1-methyl-4-(4-piperazin-1-ylphenyl)-1H-pyrrolo[2,3-b]pyridin-3-yl]methylene}-1-benzofuran-3(2H)-one], in that order: 0.156 µM, 1.42 µM and 0.01 µM.
In the same order, the values of `Cn1cc(/C=C2\Oc3cccc(O)c3C2=O)c2c(-c3ccc(C(=O)N4CCNCC4)cc3)ccnc21` [Compound 136, (2Z)-4-hydroxy-2-({1-methyl-4-[4-(piperazin-1-ylcarbonyl)phenyl]-1H-pyrrolo[2,3-b]pyridin-3-yl}methylene)-1-benzofuran-3(2H)-one] are 0.027 µM, 0.106 µM and 0.002 µM.
With `Cn1cc(/C=C2\Oc3cccc(O)c3C2=O)c2c(-c3ccc(F)c(C(=O)Nc4ccccc4)c3)ccnc21` [Compound 137, 2-fluoro-5-{3-[(Z)-(4-hydroxy-3-oxo-1-benzofuran-2(3H)-ylidene)methyl]-1-methyl-1H-pyrrolo[2,3-b]pyridin-4-yl}-N-phenylbenzamide], the figures for the IC50 at PI3Kα, at PI3Kγ and on mTOR (setting [1]) were 0.122 µM, 0.256 µM and 0.0049 µM, respectively.
On to `Cn1cc(/C=C2\Oc3cccc(O)c3C2=O)c2c(-c3cccc(C(=O)Nc4ccccc4)c3)ccnc21` [Compound 138, 3-{3-[(Z)-(4-hydroxy-3-oxo-1-benzofuran-2(3H)-ylidene)methyl]-1-methyl-1H-pyrrolo[2,3-b]pyridin-4-yl}-N-phenylbenzamide], for which the IC50 was 0.141 µM at PI3Kα, 1.23 µM on PI3Kγ and 0.0078 µM at mTOR (setting [1]).
For `Cn1cc(/C=C2\Oc3cccc(O)c3C2=O)c2c(-c3ccc(N4CCCCC4)cc3)ccnc21` [Compound 142, (2Z)-4-hydroxy-2-{[1-methyl-4-(4-piperidin-1-ylphenyl)-1H-pyrrolo[2,3-b]pyridin-3-yl]methylidene}-1-benzofuran-3(2H)-one], in that order: 1.58 µM, above 10 µM and 0.008 µM.
In the same order, the values of `Cn1cc(/C=C2\Oc3cccc(O)c3C2=O)c2c(-c3ccc(N4CCCC4)cc3)ccnc21` [Compound 143, (2Z)-4-hydroxy-2-{[1-methyl-4-(4-pyrrolidin-1-ylphenyl)-1H-pyrrolo[2,3-b]pyridin-3-yl]methylidene}-1-benzofuran-3(2H)-one] are 1.32 µM, above 10 µM and 0.0805 µM.
In the same order, the values of `Cn1cc(/C=C2\Oc3cccc(O)c3C2=O)c2c(-c3ccc(C(=O)N4CCN(CCO)CC4)cc3)ccnc21` [Compound 146, (2Z)-4-hydroxy-2-{[4-(4-{[4-(2-hydroxyethyl)piperazin-1-yl]carbonyl}phenyl)-1-methyl-1H-pyrrolo[2,3-b]pyridin-3-yl]methylidene}-1-benzofuran-3(2H)-one] are 0.1 µM, 0.101 µM and 0.0004 µM.
Turning to `Cn1cc(/C=C2\Oc3cccc(O)c3C2=O)c2c(-c3ccc(C(=O)NCCCO)cc3)ccnc21` [Compound 147, 4-{3-[(Z)-(4-hydroxy-3-oxo-1-benzofuran-2(3H)-ylidene)methyl]-1-methyl-1H-pyrrolo[2,3-b]pyridin-4-yl}-N-(3-hydroxypropyl)benzamide], the IC50 at PI3Kα turned out to be 0.038 µM; on PI3Kγ it was 0.054 µM; on mTOR (setting [1]) it was 0.0006 µM.
Turning to `COCCNC(=O)c1ccc(-c2ccnc3c2c(/C=C2\Oc4cccc(O)c4C2=O)cn3C)cc1` [Compound 149, 4-{3-[(Z)-(4-hydroxy-3-oxo-1-benzofuran-2(3H)-ylidene)methyl]-1-methyl-1H-pyrrolo[2,3-b]pyridin-4-yl}-N-(2-methoxyethyl)benzamide], the IC50 came out at 0.048 µM at PI3Kα, 0.062 µM on PI3Kγ and 0.0017 µM at mTOR (setting [1]).
Turning to `CN(C)CCNC(=O)c1ccc(-c2ccnc3c2c(/C=C2\Oc4cccc(O)c4C2=O)cn3C)cc1` [Compound 158, N-[2-(dimethylamino)ethyl]-4-{3-[(Z)-(4-hydroxy-3-oxo-1-benzofuran-2(3H)-ylidene)methyl]-1-methyl-1H-pyrrolo[2,3-b]pyridin-4-yl}benzamide], the figures for the IC50 at PI3Kα, on PI3Kγ and at mTOR (setting [1]) were 0.179 µM, 0.149 µM and 0.0086 µM, respectively.
For `CN(C)CCOc1cccc2c1C(=O)/C(=C/c1cn(C)c3nccc(-c4ccccc4)c13)O2` [Compound 159, (2Z)-4-[2-(dimethylamino)ethoxy]-2-[(1-methyl-4-phenyl-1H-pyrrolo[2,3-b]pyridin-3-yl)methylidene]-1-benzofuran-3(2H)-one], in that order: 1.45 µM, 4.15 µM and 0.0705 µM.
For `Cn1cc(/C=C2\Oc3cccc(O)c3C2=O)c2c(N3CC4COC(C3)O4)ccnc21` (stereo not drawn) [Compound 165, (2Z)-2-{[4-(6,8-dioxa-3-azabicyclo[3.2.1]oct-3-yl)-1-methyl-1H-pyrrolo[2,3-b]pyridin-3-yl]methylidene}-4-hydroxy-1-benzofuran-3(2H)-one], in that order: 0.025 µM, 0.144 µM and 0.0027 µM.
For `CNC(=O)Nc1ccc2c(c1)C(=O)/C(=C/c1cn(C)c3nccc(-c4ccc(C(=O)N5CCN(CCO)CC5)cc4)c13)O2` [Compound 166, 1-[(2Z)-2-{[4-(4-{[4-(2-hydroxyethyl)piperazin-1-yl]carbonyl}phenyl)-1-methyl-1H-pyrrolo[2,3-b]pyridin-3-yl]methylidene}-3-oxo-2,3-dihydro-1-benzofuran-5-yl]-3-methylurea], in that order: 0.252 µM, 0.343 µM and 0.0155 µM.
Turning to `CCOC(=O)Nc1ccc2c(c1)C(=O)/C(=C/c1cn(C)c3nccc(N4CCC(C(=O)N(C)C)CC4)c13)O2` [Compound 171, ethyl[(2Z)-2-({4-[4-(dimethylcarbamoyl)piperidin-1-yl]-1-methyl-1H-pyrrolo[2,3-b]pyridin-3-yl}methylidene)-3-oxo-2,3-dihydro-1-benzofuran-5-yl]carbamate], the IC50 on PI3Kα amounted to 2 µM; at PI3Kγ, 8.75 µM; on mTOR (setting [1]), 0.0665 µM.
In the same order, the values of `Cn1cc(/C=C2\Oc3ccc(NC(=O)Nc4ccccc4)cc3C2=O)c2c(N3CC4CCC(C3)O4)ccnc21` [Compound 172, 1-[(2Z)-2-{[1-methyl-4-(8-oxa-3-azabicyclo[3.2.1]oct-3-yl)-1H-pyrrolo[2,3-b]pyridin-3-yl]methylidene}-3-oxo-2,3-dihydro-1-benzofuran-5-yl]-3-phenylurea] are 0.498 µM, 1.12 µM and 0.145 µM.
For `COCCN(C)C(=O)c1ccc(-c2ccnc3c2c(/C=C2\Oc4cccc(O)c4C2=O)cn3C)cc1` [Compound 175, 4-{3-[(Z)-(4-hydroxy-3-oxo-1-benzofuran-2(3H)-ylidene)methyl]-1-methyl-1H-pyrrolo[2,3-b]pyridin-4-yl}-N-(2-methoxyethyl)-N-methylbenzamide], in that order: 0.073 µM, 0.152 µM and 0.0009 µM.
